{
  "source": "ChEMBL document CHEMBL1152084",
  "about": "(Bioorg Med Chem Lett, 1997)",
  "key": {"[1]": {"molecular_target": "Platelet-derived growth factor receptor beta (Rattus norvegicus, UniProt Q05030)", "sequence (Q05030 whole entry)": "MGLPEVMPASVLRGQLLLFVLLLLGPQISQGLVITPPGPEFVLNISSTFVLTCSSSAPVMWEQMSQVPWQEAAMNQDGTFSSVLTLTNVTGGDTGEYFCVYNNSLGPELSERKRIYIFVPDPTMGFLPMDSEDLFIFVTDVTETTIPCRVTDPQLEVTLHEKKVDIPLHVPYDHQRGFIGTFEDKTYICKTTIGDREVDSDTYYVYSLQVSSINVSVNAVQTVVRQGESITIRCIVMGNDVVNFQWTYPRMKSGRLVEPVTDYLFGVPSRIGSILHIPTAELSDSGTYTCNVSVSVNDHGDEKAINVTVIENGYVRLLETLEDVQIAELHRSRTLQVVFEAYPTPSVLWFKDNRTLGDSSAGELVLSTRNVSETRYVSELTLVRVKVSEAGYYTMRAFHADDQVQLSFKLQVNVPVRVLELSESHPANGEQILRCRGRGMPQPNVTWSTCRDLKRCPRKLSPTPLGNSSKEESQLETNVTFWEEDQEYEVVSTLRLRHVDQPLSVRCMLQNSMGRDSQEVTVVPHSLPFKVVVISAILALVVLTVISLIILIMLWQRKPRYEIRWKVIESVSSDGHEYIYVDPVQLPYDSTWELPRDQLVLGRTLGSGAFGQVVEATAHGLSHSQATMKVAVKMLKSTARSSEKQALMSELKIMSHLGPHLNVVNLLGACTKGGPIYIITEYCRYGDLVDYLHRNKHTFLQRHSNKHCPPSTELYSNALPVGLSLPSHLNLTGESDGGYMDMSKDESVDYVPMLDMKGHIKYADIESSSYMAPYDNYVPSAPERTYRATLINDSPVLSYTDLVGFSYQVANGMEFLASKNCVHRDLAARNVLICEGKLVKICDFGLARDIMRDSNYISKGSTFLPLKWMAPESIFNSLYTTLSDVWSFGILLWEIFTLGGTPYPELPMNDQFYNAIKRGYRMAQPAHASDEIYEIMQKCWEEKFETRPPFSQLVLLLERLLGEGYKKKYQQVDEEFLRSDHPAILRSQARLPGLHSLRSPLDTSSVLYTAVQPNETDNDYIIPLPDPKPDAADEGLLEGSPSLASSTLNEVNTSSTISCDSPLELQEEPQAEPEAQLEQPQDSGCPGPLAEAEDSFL", "experiment": "Inhibition of PDGF-BB induced PDGF-B receptor autophosphorylation in rat mesangial cells.", "format": "functional, cell-based"}, "[2]": {"molecular_target": "Epidermal growth factor receptor (Homo sapiens, UniProt P00533)", "sequence (P00533 whole entry)": "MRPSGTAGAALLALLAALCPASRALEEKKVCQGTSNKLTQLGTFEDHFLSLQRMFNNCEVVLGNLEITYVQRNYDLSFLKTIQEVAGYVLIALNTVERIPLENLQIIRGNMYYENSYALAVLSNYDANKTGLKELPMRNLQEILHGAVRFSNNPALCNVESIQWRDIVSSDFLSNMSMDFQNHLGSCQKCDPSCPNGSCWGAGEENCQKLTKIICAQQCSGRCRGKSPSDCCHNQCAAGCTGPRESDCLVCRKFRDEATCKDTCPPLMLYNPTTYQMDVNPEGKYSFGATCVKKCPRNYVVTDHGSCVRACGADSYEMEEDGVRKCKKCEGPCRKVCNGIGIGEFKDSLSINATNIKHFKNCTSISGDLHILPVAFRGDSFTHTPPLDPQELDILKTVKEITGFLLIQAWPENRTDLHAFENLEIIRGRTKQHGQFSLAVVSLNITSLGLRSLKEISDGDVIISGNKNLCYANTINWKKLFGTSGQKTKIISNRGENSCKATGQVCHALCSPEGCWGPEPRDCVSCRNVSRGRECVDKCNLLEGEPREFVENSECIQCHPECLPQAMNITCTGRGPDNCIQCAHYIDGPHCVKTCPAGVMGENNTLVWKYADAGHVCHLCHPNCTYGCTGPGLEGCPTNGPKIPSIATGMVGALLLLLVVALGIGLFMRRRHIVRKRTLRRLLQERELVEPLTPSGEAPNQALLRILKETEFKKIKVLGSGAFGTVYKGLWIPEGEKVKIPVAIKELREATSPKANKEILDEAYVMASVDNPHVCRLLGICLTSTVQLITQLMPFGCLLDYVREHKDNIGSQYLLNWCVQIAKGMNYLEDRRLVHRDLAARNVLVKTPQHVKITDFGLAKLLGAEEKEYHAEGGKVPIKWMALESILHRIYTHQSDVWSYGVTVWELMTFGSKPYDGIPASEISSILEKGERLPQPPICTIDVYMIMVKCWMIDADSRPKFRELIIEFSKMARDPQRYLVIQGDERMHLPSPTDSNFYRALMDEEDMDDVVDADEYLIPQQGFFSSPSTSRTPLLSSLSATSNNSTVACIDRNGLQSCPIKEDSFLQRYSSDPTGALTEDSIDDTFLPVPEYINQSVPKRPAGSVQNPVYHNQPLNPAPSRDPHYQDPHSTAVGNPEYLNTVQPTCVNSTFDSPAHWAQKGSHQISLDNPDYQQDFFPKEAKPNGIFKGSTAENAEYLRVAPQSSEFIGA", "experiment": "Inhibition of epidermal growth factor receptor (EGF-R) autophosphorylation in A431 cells", "format": "functional, cell-based, A-431"}, "[3]": {"molecular_target": "Proto-oncogene tyrosine-protein kinase Src (Homo sapiens, UniProt P12931)", "sequence (P12931 2-536 limits assumed)": "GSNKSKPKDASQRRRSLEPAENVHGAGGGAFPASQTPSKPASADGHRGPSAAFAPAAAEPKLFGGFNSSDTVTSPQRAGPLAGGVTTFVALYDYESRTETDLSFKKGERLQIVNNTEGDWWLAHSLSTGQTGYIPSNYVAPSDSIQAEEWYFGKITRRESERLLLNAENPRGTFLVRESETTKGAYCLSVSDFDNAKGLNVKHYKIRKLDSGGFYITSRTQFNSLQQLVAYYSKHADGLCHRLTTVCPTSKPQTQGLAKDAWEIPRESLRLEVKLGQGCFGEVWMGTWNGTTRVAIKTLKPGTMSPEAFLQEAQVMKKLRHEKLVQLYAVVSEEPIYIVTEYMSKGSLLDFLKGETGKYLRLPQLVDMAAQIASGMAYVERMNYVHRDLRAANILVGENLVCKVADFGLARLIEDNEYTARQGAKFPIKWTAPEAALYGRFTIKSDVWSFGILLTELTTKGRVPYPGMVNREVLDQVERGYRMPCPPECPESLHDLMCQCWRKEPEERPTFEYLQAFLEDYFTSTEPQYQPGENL", "experiment": "Inhibition of c-SRC"}, "[4]": {"molecular_target": "Cyclin-dependent kinase 1 (Homo sapiens, UniProt P06493)", "sequence (P06493 whole entry)": "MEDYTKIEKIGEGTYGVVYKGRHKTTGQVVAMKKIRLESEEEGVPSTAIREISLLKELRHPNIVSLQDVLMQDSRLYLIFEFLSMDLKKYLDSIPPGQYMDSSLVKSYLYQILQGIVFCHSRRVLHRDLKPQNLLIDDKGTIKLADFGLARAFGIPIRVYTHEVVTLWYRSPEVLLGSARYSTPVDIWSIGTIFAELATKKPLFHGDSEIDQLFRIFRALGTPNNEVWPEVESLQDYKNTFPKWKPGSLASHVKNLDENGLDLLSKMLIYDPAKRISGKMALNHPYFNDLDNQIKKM", "experiment": "Inhibition of Cdc2"}, "Protein kinase C (PKC)": {"molecular_target": "Protein kinase C (PKC)", "experiment": "Inhibition of Protein kinase C", "format": "protein assay"}, "[5]": {"molecular_target": "Mitogen-activated protein kinase; ERK1/ERK2 (Homo sapiens, UniProt P27361+P28482)", "experiment": "Inhibition of Mitogen-activated protein kinase", "format": "protein assay"}, "[6]": {"molecular_target": "cAMP-dependent protein kinase (PKA) (Homo sapiens, UniProt P22694+P17612+P22612)", "experiment": "Inhibition of Protein kinase A", "format": "protein assay"}},
  "data": [
    {"smiles": "COc1cc2nccc(Oc3cccc(N)c3)c2cc1OC", "values": [
      {"measurement": "IC50", "setting": "[1]", "value": 1.7, "unit": "µM"}
    ]},
    {"smiles": "COc1ccc(Nc2ncnc3cc(OC)c(OC)cc23)cc1OC", "values": [
      {"measurement": "IC50", "setting": "[2]", "value": 2.8, "unit": "µM"},
      {"measurement": "IC50", "setting": "[1]", "value": 4.5, "unit": "µM"}
    ]},
    {"smiles": "COc1cc2nccc(Oc3cccc(C)c3)c2cc1OC", "values": [
      {"measurement": "IC50", "setting": "[1]", "value": 6.9, "unit": "µM"}
    ]},
    {"smiles": "CCc1cccc(Oc2ccnc3cc(OC)c(OC)cc23)c1", "values": [
      {"measurement": "IC50", "setting": "[1]", "value": 8.4, "unit": "µM"}
    ]},
    {"smiles": "COc1ccc(Oc2ncnc3cc(OC)c(OC)cc23)cc1OC", "values": [
      {"measurement": "IC50", "setting": "[2]", "value": "> 100", "unit": "µM"},
      {"measurement": "IC50", "setting": "[1]", "value": 0.57, "unit": "µM"}
    ]},
    {"smiles": "COc1cc2nccc(Oc3cccc(O)c3)c2cc1OC", "values": [
      {"measurement": "IC50", "setting": "[1]", "value": 0.56, "unit": "µM"}
    ]},
    {"smiles": "COc1ccc(Oc2ccnc3cc(OC)c(OC)cc23)cc1OC", "values": [
      {"measurement": "IC50", "setting": "[3]", "value": "> 10", "unit": "µM"},
      {"measurement": "IC50", "setting": "[4]", "value": "> 10", "unit": "µM"},
      {"measurement": "IC50", "setting": "Protein kinase C (PKC)", "value": "> 20", "unit": "µM"},
      {"measurement": "IC50", "setting": "[5]", "value": "> 10", "unit": "µM"},
      {"measurement": "IC50", "setting": "[6]", "value": "> 10", "unit": "µM"}
    ]},
    {"smiles": "COc1cc(OC)cc(Oc2ccnc3cc(OC)c(OC)cc23)c1", "values": [
      {"measurement": "IC50", "setting": "[1]", "value": 5.5, "unit": "µM"}
    ]},
    {"smiles": "COc1cc2nccc(Oc3ccccc3OC)c2cc1OC", "values": [
      {"measurement": "IC50", "setting": "[1]", "value": 0.6, "unit": "µM"}
    ]},
    {"smiles": "COc1cc2nccc(Oc3c(OC)cccc3OC)c2cc1OC", "values": [
      {"measurement": "IC50", "setting": "[1]", "value": 69.3, "unit": "µM"}
    ]},
    {"smiles": "COc1cc2nccc(Oc3cccc(F)c3)c2cc1OC", "values": [
      {"measurement": "IC50", "setting": "[1]", "value": 1.5, "unit": "µM"}
    ]},
    {"smiles": "COc1cc2nccc(Oc3cccc([N+](=O)[O-])c3)c2cc1OC", "values": [
      {"measurement": "IC50", "setting": "[1]", "value": 0.7, "unit": "µM"}
    ]},
    {"smiles": "COc1ccc(Nc2ccnc3cc(OC)c(OC)cc23)cc1OC", "values": [
      {"measurement": "IC50", "setting": "[2]", "value": 80.5, "unit": "µM"},
      {"measurement": "IC50", "setting": "[1]", "value": 2.6, "unit": "µM"}
    ]},
    {"smiles": "COc1ccc(Oc2ccnc3cc(OC)c(OC)cc23)cc1", "values": [
      {"measurement": "IC50", "setting": "[1]", "value": 1.9, "unit": "µM"}
    ]},
    {"smiles": "CCOc1cccc(Oc2ccnc3cc(OC)c(OC)cc23)c1", "values": [
      {"measurement": "IC50", "setting": "[1]", "value": 12.9, "unit": "µM"}
    ]},
    {"smiles": "COc1cc2nccc(Oc3ccccc3)c2cc1OC", "values": [
      {"measurement": "IC50", "setting": "[1]", "value": 0.76, "unit": "µM"}
    ]},
    {"smiles": "COc1cc2nccc(Oc3cccc(OC)c3OC)c2cc1OC", "values": [
      {"measurement": "IC50", "setting": "[1]", "value": 4.4, "unit": "µM"}
    ]},
    {"smiles": "COc1cc2ncnc(Oc3cccc(Br)c3)c2cc1OC", "values": [
      {"measurement": "IC50", "setting": "[2]", "value": 0.07, "unit": "µM"},
      {"measurement": "IC50", "setting": "[1]", "value": 14.8, "unit": "µM"}
    ]},
    {"smiles": "COc1cc2nccc(Nc3cccc(Br)c3)c2cc1OC", "values": [
      {"measurement": "IC50", "setting": "[1]", "value": 21.5, "unit": "µM"}
    ]},
    {"smiles": "COc1cc2nccc(Oc3cccc(Br)c3)c2cc1OC", "values": [
      {"measurement": "IC50", "setting": "[2]", "value": 2.5, "unit": "µM"},
      {"measurement": "IC50", "setting": "[1]", "value": 8.4, "unit": "µM"}
    ]}
  ]
}
